Assay [1] addresses T1, Polyunsaturated fatty acid 5-lipoxygenase (Homo sapiens, UniProt P09917).
T1 sequence (P09917 whole entry): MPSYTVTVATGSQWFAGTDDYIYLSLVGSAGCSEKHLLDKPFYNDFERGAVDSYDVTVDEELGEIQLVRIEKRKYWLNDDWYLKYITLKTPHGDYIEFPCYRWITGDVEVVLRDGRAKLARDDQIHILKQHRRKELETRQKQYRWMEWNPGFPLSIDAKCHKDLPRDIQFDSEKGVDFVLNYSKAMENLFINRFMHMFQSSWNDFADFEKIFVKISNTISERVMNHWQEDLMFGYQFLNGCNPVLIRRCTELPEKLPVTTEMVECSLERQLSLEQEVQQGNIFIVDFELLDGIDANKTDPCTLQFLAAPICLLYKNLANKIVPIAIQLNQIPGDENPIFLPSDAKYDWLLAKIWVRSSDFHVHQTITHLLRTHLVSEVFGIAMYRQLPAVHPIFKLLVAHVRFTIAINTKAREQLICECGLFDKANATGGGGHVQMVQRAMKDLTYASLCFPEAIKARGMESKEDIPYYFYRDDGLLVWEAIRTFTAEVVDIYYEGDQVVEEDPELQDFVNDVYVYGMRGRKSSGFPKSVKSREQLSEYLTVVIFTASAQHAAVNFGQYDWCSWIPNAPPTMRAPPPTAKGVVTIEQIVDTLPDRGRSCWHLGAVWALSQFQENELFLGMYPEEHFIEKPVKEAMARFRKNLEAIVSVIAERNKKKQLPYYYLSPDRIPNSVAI
The assay is described as follows: Inhibition of human recombinant 5-lipoxygenase.

The target of assay [2] is T1, Polyunsaturated fatty acid 5-lipoxygenase. The assay can be described thus: Inhibition of 5-lipoxygenase in human PMNL.
The next assay addresses T2, Prostaglandin E synthase (Homo sapiens, UniProt O14684).
T2 sequence (O14684 whole entry): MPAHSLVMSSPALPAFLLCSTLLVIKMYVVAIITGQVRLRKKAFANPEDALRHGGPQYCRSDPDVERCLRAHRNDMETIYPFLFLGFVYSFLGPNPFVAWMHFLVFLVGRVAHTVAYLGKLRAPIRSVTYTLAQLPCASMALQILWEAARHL
The assay is described as follows: Inhibition of mPGES-1 expressed in […]-stimulated human A549 cells mitochondrial fraction assessed as conversion of PGH2 to PGE2. Type of assay: cell-based.

Assay [3] deals with T3, Prostaglandin E synthase (Homo sapiens) (UniProt O14684).
T3 sequence (whole entry): T2 sequence (O14684 whole entry)
The assay is described as follows: Inhibition of mPGES-1 expressed in IL-1beta-stimulated human A549 cells mitochondrial fraction assessed as remaining activity at 10 uM.

In assay [4] the target is T4, Polyunsaturated fatty acid 5-lipoxygenase (Homo sapiens) (UniProt P09917).
T4 sequence (whole entry): T1 sequence (P09917 whole entry)
The assay can be described thus: Inhibition of 5-lipoxygenase in human PMNL assessed as remaining activity at 10 uM.

Assay [5] addresses T4, Polyunsaturated fatty acid 5-lipoxygenase (Homo sapiens). The assay is described as follows: Inhibition of human recombinant 5-lipoxygenase assessed as remaining activity at 10 uM.
Assay [6] deals with T3, Prostaglandin E synthase (Homo sapiens). The assay is described as follows: Inhibition of mPGES-1 expressed in […]-stimulated human A549 cells mitochondrial fraction assessed as remaining activity at 10 uM. The class given is cell-based.

These results are taken from ChEMBL document CHEMBL1681685, “A novel class of dual mPGES-1/5-LO inhibitors based on the α-naphthyl pirinixic acid scaffold” (Bioorg Med Chem Lett, 2011).

Active and inactive are the calls of the source. The rule behind the calls is not given here.

By IC50 is commonly meant the point on the concentration scale where inhibition reaches its midpoint. Take `O=C(O)C(Sc1nc(Cl)cc(Nc2ccc(Cl)cc2)n1)c1cccc2ccccc12` (centres undefined): the half-inhibitory concentration (IC50) came to 8.9 µM in assay [1], 800 nM in assay [2] and 5100 nM at Prostaglandin E synthase.
As to `CC(C)c1ccc(Nc2cc(Cl)nc(SC(C(=O)O)c3cccc4ccccc34)n2)cc1` (centres undefined), the Activity in assay [3] was 35.8%. In addition, the results for the 50% inhibitory concentration (IC50) in assay [1] and in assay [2] were 5.8 µM and 260 nM, respectively.
Turning to `Cc1cccc(Nc2cc(Cl)nc(SCC(=O)O)n2)c1C`, the result in assay [4], in assay [3] and in assay [5] was inactive.
Consider `O=C(O)C(Sc1nc(Cl)cc(Nc2ccc3c(c2)CCC3)n1)c1cccc2ccccc12` (centres undefined), for which the Activity in assay [3] amounted to 36.7%. Further, the half-inhibitory concentration (IC50) came out at 4.2 µM in assay [1] and 500 nM in assay [2].
On to `O=C(O)C(Sc1nc(Cl)cc(NCCc2ccccc2)n1)c1cccc2ccccc12` (centres undefined), for which the Activity amounted to 42.3% in assay [3] and 44.2% in assay [5]. Besides, in assay [2], the concentration for half-maximal inhibition (IC50) was determined as 2500 nM.
For the compound `O=C(O)C(Sc1nc(Cl)cc(Nc2ccc3c(c2)Cc2ccccc2-3)n1)c1cccc2ccccc12` (centres undefined), the concentration for half-maximal inhibition (IC50) in assay [1] turned out to be 1.6 µM; in assay [2] it was 240 nM; at Prostaglandin E synthase, 1550 nM.
`CC(C)CNc1cc(Cl)nc(SC(C(=O)O)c2cccc3ccccc23)n1` (centres undefined) returned an IC50 in assay [2] of 2500 nM. For the same compound, the results for the Activity in assay [5] and in assay [6] were 54.8% and 65.3%, respectively.
Regarding `O=C(O)C(Sc1nc(Cl)cc(NCc2ccc(-c3ccccc3)cc2)n1)c1cccc2ccccc12` (centres undefined), the concentration for half-maximal inhibition (IC50) was 3 µM in assay [1], 700 nM in assay [2] and 880 nM on Prostaglandin E synthase.
For `O=C(O)C(Sc1nc(Cl)cc(Nc2ccc(-c3ccccc3)cc2)n1)c1cccc2ccccc12` (centres undefined) the same measures were 2.3 µM, 100 nM and 940 nM.
On to `O=C(Nc1ccc(Nc2cc(Cl)nc(SC(C(=O)O)c3cccc4ccccc34)n2)cc1)c1ccccc1` (centres undefined), for which, in assay [3], the Activity turned out to be 38.8%. Further, the IC50 in assay [1] turned out to be 5.2 µM; in assay [2] it was 600 nM.
For the compound `N#Cc1ccc(-c2ccc(Nc3cc(Cl)nc(SC(C(=O)O)c4cccc5ccccc45)n3)cc2)cc1` (centres undefined), the concentration for half-maximal inhibition (IC50) in assay [1] came out at 2.3 µM; in assay [2] it was 170 nM; on Prostaglandin E synthase, 1600 nM.
Take `O=C(O)C(Sc1nc(Cl)cc(Nc2ccc3ncccc3c2)n1)c1cccc2ccccc12` (centres undefined): the Activity worked out at 49.1% in assay [3] and 19% in assay [5]. The compound also had an IC50 in assay [2] of 4400 nM.
In the case of `Cc1ccc(Nc2cc(Cl)nc(SC(C(=O)O)c3cccc4ccccc34)n2)cc1C` (centres undefined), the IC50 in assay [1] was 8.5 µM; in assay [2], 700 nM; on Prostaglandin E synthase it was 5700 nM.
For the compound `O=C(O)C(Sc1nc(Cl)cc(Nc2ccc3ccccc3c2)n1)c1cccc2ccccc12` (centres undefined), the 50% inhibitory concentration (IC50) was found to be 2.9 µM in assay [1], 500 nM in assay [2] and 1900 nM at Prostaglandin E synthase.
Consider `O=C(O)C(Sc1nc(Cl)cc(Nc2cccc(Cl)c2)n1)c1cccc2ccccc12` (centres undefined), for which the Activity in assay [3] came out at 45.5%. Further, the IC50 came to 5 µM in assay [1] and 700 nM in assay [2].
In the case of `O=C(O)C(Sc1nc(Cl)cc(Nc2ccc(C3CCCCC3)cc2)n1)c1cccc2ccccc12` (centres undefined), the IC50 is 2 µM in assay [1], 400 nM in assay [2] and 1450 nM at Prostaglandin E synthase.
On to `CC(C)(C)c1cc(Nc2cc(Cl)nc(SC(C(=O)O)c3cccc4ccccc34)n2)cc(C(C)(C)C)c1` (centres undefined), for which the IC50 in assay [1] stood at 1.9 µM; in assay [2], 260 nM; at Prostaglandin E synthase it was 900 nM.
On to `O=C(O)C(Sc1nc(Cl)cc(Nc2ccc(F)cc2)n1)c1cccc2ccccc12` (centres undefined), for which the Activity turned out to be 49.9% in assay [3] and 67.3% in assay [5]. Moreover, in assay [2], the IC50 turned out to be 3100 nM.
As for `O=C(O)C(Sc1nc(Cl)cc(Nc2ccc(Cc3ccccc3)cc2)n1)c1cccc2ccccc12` (centres undefined), the IC50 in assay [1] came to 2.2 µM; in assay [2] it was 300 nM; at Prostaglandin E synthase, 1500 nM.
As for `O=C(O)C(Sc1nc(Cl)cc(Nc2ccc(Oc3ccccc3)cc2)n1)c1cccc2ccccc12` (centres undefined), the IC50 turned out to be 3.1 µM in assay [1], 400 nM in assay [2] and 940 nM at Prostaglandin E synthase.
As to `O=C(O)C(Sc1nc(Cl)cc(NCCCc2ccccc2)n1)c1cccc2ccccc12` (centres undefined), the concentration for half-maximal inhibition (IC50) in assay [2] was found to be 1800 nM; on Prostaglandin E synthase it was 6100 nM. In assay [5], the Activity came to 68.9%.
For `O=C(O)C(Sc1nc(Cl)cc(Nc2cccc(-c3ccccc3)c2)n1)c1cccc2ccccc12` (centres undefined), the IC50 in assay [1] amounted to 5 µM; in assay [2], 500 nM; on Prostaglandin E synthase, 1900 nM.
As for `CCCCNc1cc(Cl)nc(SC(C(=O)O)c2cccc3ccccc23)n1` (centres undefined), the Activity in assay [3] was found to be 90.2%; in assay [5], 70.6%. 2400 nM corresponded to half-maximal inhibition in assay [2] (IC50).
